Laboratory results published in PubChem BioAssay (NCI).
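All cell lines were grown in 96-well plates and treated with compound for 48 hours. Abbreviation: GI50, concentration required for 50% inhibition of growth. TGI is the concentration that stops growth completely.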

Tests used:
Experiment in all cases: inhibition of tumour cell growth, NCI panel, 48 h
SK-OV-3 ovarian = system: SK-OV-3 ovarian
SK-MEL-2 melanoma = system: SK-MEL-2 melanoma
HCC-2998 colon = system: HCC-2998 colon
HS 578T breast = system: HS 578T breast
HCT-15 colon = system: HCT-15 colon
OVCAR-8 ovarian = system: OVCAR-8 ovarian
CAKI-1 renal = system: CAKI-1 renal
HL-60(TB) leukemia = system: HL-60(TB) leukemia

Structure (SMILES) | GI50 (SK-OV-3 ovarian) [µM] | TGI (SK-OV-3 ovarian) [µM] | GI50 (SK-MEL-2 melanoma) [µM] | TGI (SK-MEL-2 melanoma) [µM] | GI50 (HCC-2998 colon) [µM] | TGI (HCC-2998 colon) [µM] | GI50 (HS 578T breast) [µM] | TGI (HS 578T breast) [µM] | GI50 (HCT-15 colon) [µM] | TGI (HCT-15 colon) [µM] | GI50 (OVCAR-8 ovarian) [µM] | TGI (OVCAR-8 ovarian) [µM] | GI50 (CAKI-1 renal) [µM] | TGI (CAKI-1 renal) [µM] | GI50 (HL-60(TB) leukemia) [µM] | TGI (HL-60(TB) leukemia) [µM]
COC(=O)/C(=C\c1c(C)[nH]c2ccccc12)S(=O)(=O)c1ccccc1 | 9.27 | 41.4 | 10.6 | 25.5 | 4.89 | 17.4 | 2.85 | 13.6 | 3.07 | 12.8 | 3.94 | > 100 | 3.33 | 16.7 | – | –
COc1nc(C)cc2c(=O)n(-c3ccccc3)n(CCCN3CCN(c4ccc(Cl)cc4)CC3)c(=O)c12 | 32.8 | > 50 | > 50 | > 50 | > 50 | > 50 | 27.4 | > 50 | > 50 | > 50 | – | – | 38.2 | > 50 | > 50 | > 50
O=C1c2ccccc2-c2c1c1ccccc1c(=O)n2CCCN1CCOCC1 | 17.7 | 45 | 19.5 | 50.7 | > 40.1 | > 100 | 4.15 | 14.8 | 21.8 | > 100 | 7.26 | > 75.2 | 14 | 30 | 24.9 | > 100
O=[N+]([O-])/C=C/c1c[nH]c2ccccc12 | 15.2 | 29.1 | 18.6 | 37.8 | 4.35 | 12.5 | 21.2 | 66.6 | 18.2 | 45.7 | 21.6 | 49.4 | 16.8 | 32.7 | 6.5 | 25
Cc1cc2c(F)c(Oc3ncnn4cc(OC[C@@H](C)OC(=O)[C@H](C)N)c(C)c34)ccc2[nH]1 | 12.4 | 26.7 | 19.9 | 35.3 | 13.5 | 27.6 | 9.36 | 44.2 | 0.882 | 14 | 8.96 | 23.1 | 7.21 | 21.5 | 7.2 | 26.3
C[N+](C)(CCCCCC[N+](C)(C)CCCN1C(=O)c2cc3ccccc3cc2C1=O)CCCN1C(=O)c2ccccc2C1=O | > 37.5 | > 37.5 | > 37.5 | > 37.5 | > 37.5 | > 37.5 | > 37.5 | > 37.5 | > 37.5 | > 37.5 | > 37.5 | > 37.5 | > 37.5 | > 37.5 | > 37.5 | > 37.5
O=C(Oc1ccc(CCl)cc1)c1ccccc1 | 0.386 | 1.42 | 0.175 | 0.358 | 0.189 | 0.385 | 0.121 | 0.438 | 0.181 | 0.393 | 0.155 | 0.291 | 0.16 | 0.303 | – | –
CN(C)CCCNC(=O)c1cc(NC(=O)c2cc(NC(=O)c3cc(NC(=O)CCc4c[nH]c5ccccc45)cn3C)cn2C)cn1C | > 100 | > 100 | > 100 | > 100 | > 100 | > 100 | 0.0701 | > 100 | > 100 | > 100 | > 100 | > 100 | – | – | > 100 | > 100
O=c1cc(-c2ccccc2)nc2n1CCN2Cc1ccccc1 | 51.3 | > 100 | 20.5 | 50.5 | – | – | 26.9 | 81.7 | 31.2 | > 100 | 47.2 | > 100 | 29.7 | > 100 | 33.1 | 58.2
Nc1ccccc1C#C/C=C\C#Cc1ccc(Cl)cc1Cl | 27.8 | 80.5 | 25 | 70.1 | 3.37 | 9.58 | 3.61 | 8.49 | – | – | 19.1 | 41.5 | 3.38 | 13.5 | – | –
COC(=O)C(Nc1ccc(OC)cc1)c1ccccc1 (centres undefined) | – | – | – | > 100 | – | – | – | > 100 | – | > 100 | – | > 100 | – | > 100 | – | –
COc1ccc(/C=C\c2cc(OC)c(OC)c(OC)c2)cc1OCC(=O)Nc1nc2ccc(C(F)(F)F)cc2s1 | 3.29 | 17.2 | 3.98 | > 100 | 4.23 | > 100 | 4.18 | > 100 | 3.24 | > 100 | 3.86 | > 100 | 3.1 | > 100 | – | –
O=C(Nc1ccc(Cl)cc1)c1cc2ccccc2cc1O | 1.91 | 9.61 | 2.87 | 13.1 | 2.55 | 7.65 | 2.68 | 11.9 | 3.1 | > 100 | 3.67 | > 100 | – | – | 2.7 | 7.91
COc1ccc(-c2nc(-c3ccccc3)c(-c3ccccc3)n2C2CC2)cc1OC1CCCC1 | > 165 | > 165 | 105 | > 165 | – | – | 26.3 | > 165 | 7.26 | > 165 | 66.6 | > 165 | 50.2 | > 165 | 28.3 | 141
Cc1cc(S(=O)(=O)Nc2nnc(-c3ccccc3)c(-c3ccccc3)n2)c(SCc2ccccc2)cc1Cl | – | – | – | – | 27.3 | 43.8 | 19.1 | 52.8 | 20.3 | 43.3 | 27.2 | 89.7 | 25.5 | 42.5 | 34.1 | 67.2
OCCCCC#Cc1ccccc1C#Cc1ccccc1C(F)(F)F | 17.7 | 32.7 | 15.6 | 32.6 | 3.64 | 13.9 | 11.8 | 37.1 | 3.5 | 16 | 13.3 | 31.6 | 5.37 | 17.9 | – | –
